Common to all, as to assay type: cell-based
Assay [1] has as its system normal primary human skin fibroblastic cells. The assay is described as follows: Content of collagen in cell medium (extracellular collagen) of fibroblasts (Western blot and ELISA), relative to control. To be noted: 48 hours; for relative content of collagen in the medium (extracellular content of collagen): control group = 100%; for extracellular contents of collagen (collagen in cell medium) as compared to the control group (in words): treated cells vs control group. As to the method:
The normal primary human skin fibroblastic cells (purchased from ATCC) were cultivated in a Fibroblast Growth Medium. The cells thus provided were used in the following experiments.
The normal primary human skin fibroblastic cells provided by [Preparation Example C] were divided into 4 groups and were respectively cultivated with the following medium for 48 hours: • 1. Group I: a Fibroblast Growth Medium; • 2.
(§1) Thereafter, the cell medium of each group was collected and concentrated. Then, the intracellular content of collagen, the content of collagen in cell medium (i.e., extracellular content of collagen) and the content of hyaluronic acid in cell medium were measured and analyzed by Western blot and enzyme-linked immunosorbent assay (ELISA).
(§2) The normal primary human skin fibroblastic cells provided by [Preparation Example C] were divided into 37 groups and were respectively cultivated with the following medium for 48 hours: • 1. Group 1: a Fibroblast Growth Medium • 2. Group 2-1 to 2-3: Fibroblast Growth Media containing the pachymic acid (PA) provided by [Preparation Example B] at a concentration of 0.01, 0.1 and 1 μM, respectively; • 3. Group 3-1 to 3-3: Fibroblast Growth Media containing the dehydropachymic acid (DPA) provided by [Preparation Example B] at a concentration of 0.01, 0.1 and 1 μM, respectively; • 4. Group 4-1 to 4-3: Fibroblast Growth Media containing the tumulosic acid (TA) provided by [Preparation Example B] at a concentration of 0.01, 0.1 and 1 μM, respectively; • 5. Group 5-1 to 5-3: Fibroblast Growth Media containing the dehydrotumulosic acid (DTA) provided by [Preparation Example B] at a concentration of 0.01, 0.1 and 1 μM, respectively; • 6. Group 6-1 to 6-3: Fibroblast Growth Media containing the polyporenic acid C (PAC) provided by [Preparation Example B] at a concentration of 0.01, 0.1 and 1 μM, respectively; • 7. Group 7-1 to 7-3: Fibroblast Growth Media containing the 3-epi-dehydrotumulosic acid (EDTA) provided by [Preparation Example B] at a concentration of 0.01, 0.1 and 1 μM, respectively; • 8. Group 8-1 to 8-3: Fibroblast Growth Media containing the dehydrotrametenolic acid (DTTA) provided by [Preparation Example B] at a concentration of 0.01, 0.1 and 1 μM, respectively; • 9. Group 9-1 to 9-3: Fibroblast Growth Media containing the trametenolic acid (TTA) provided by [Preparation Example B] at a concentration of 0.01, 0.1 and 1 μM, respectively; • 10. Group 10-1 to 10-3: Fibroblast Growth Media containing the poricoic acid A (PAA) provided by [Preparation Example B] at a concentration of 0.01, 0.1 and 1 μM, respectively; • 11. Group 11-1 to 11-3: Fibroblast Growth Media containing the dehydroeburicoic acid (DEA) provided by [Preparation Example B] at a concentration of 0.01, 0.1 and 1 μM, respectively; • 12. Group 12-1 to 12-3: Fibroblast Growth Media containing the poricoic acid B (PAB) provided by [Preparation Example B] at a concentration of 0.01, 0.1 and 1 μM, respectively; • 13. Group 13-1 to 13-3: Fibroblast Growth Media containing the eburicoic acid (EA) provided by [Preparation Example B] at a concentration of 0.01, 0.1 and 1 μM, respectively.
The content of collagen in the medium of each group (i.e., extracellular content of collagen) was provided.

The test system is the same in assay [2]. Briefly: Intracellular content of collagen in fibroblasts (Western blot and ELISA), relative to control. To be noted: 48 hours; for relative intracellular content of collagen: control group = 100%; for intracellular contents of collagen as compared to the control group (in words): treated cells vs control group. Here is the method:
(§3) The normal primary human skin fibroblastic cells (purchased from ATCC) were cultivated in a Fibroblast Growth Medium. The cells thus provided were used in the following experiments. […]
as §2
Thereafter, the cell medium of each group was collected and concentrated. Then, the intracellular content of collagen was measured and analyzed by Western blot and enzyme-linked immunosorbent assay (ELISA).
(A western blot detects proteins with antibodies after separation by electrophoresis.)

The test system is the same in assay [3]. Briefly: Content of hyaluronic acid in cell medium of fibroblasts (Western blot and ELISA), relative to control. The settings on record: 48 hours; for relative content of hyaluronic acid in the medium (extracellular content of hyaluronic acid): control group = 100%; for contents of hyaluronic acid as compared to the control group (in words): treated cells vs control group. Here is the method:
as §3, §1, §2
The content of hyaluronic acid in the medium of each group (i.e., extracellular content of hyaluronic acid) was provided.

In the case of `C=C(CC[C@@H](C(=O)O)[C@H]1[C@H](O)C[C@@]2(C)C3=CC[C@H]4C(C)(C)C(=O)CC[C@]4(C)C3=CC[C@]12C)C(C)C` [Polyporenic acid C (PAC), polyporenic acid C], the entries for the “relative content of collagen in the medium (extracellular content of collagen)” value (“relative content of collagen” below) in assay [1] (0.01 μM), in assay [1] (0.1 μM) and in assay [1] (1 μM) were 134%, 162% and 153%, respectively. The “extracellular contents of collagen (collagen in cell medium) as compared to the control group (in words)” value in assay [1] is “significantly enhanced”. Besides, the results for the “relative intracellular content of collagen” value in assay [2] (0.01 μM), in assay [2] (0.1 μM) and in assay [2] (1 μM) were 162%, 182% and 200%, respectively. In assay [2], the “intracellular contents of collagen as compared to the control group (in words)” value was “significantly enhanced”. The “relative content of hyaluronic acid in the medium (extracellular content of hyaluronic acid)” value (from here on “relative content of hyaluronic acid”) in assay [3] (0.01 μM) is reported as 93%; in assay [3] (0.1 μM), 113%; in assay [3] (1 μM), 98%. The “contents of hyaluronic acid as compared to the control group (in words)” value in assay [3] is “significantly enhanced”.

For the compound `C=C(CC[C@@H](C(=O)O)[C@H]1[C@H](O)C[C@@]2(C)C3=CC[C@@H](C(=C)C)[C@](C)(CCC(=O)O)C3=CC[C@]12C)C(C)C` [Poricoic acid A (PAA), poricoic acid A], the “relative content of collagen” value amounted to 111% in assay [1] (0.01 μM), 111% in assay [1] (0.1 μM) and 91% in assay [1] (1 μM). Besides, the “extracellular contents of collagen (collagen in cell medium) as compared to the control group (in words)” value in assay [1] was “significantly enhanced”. The “relative intracellular content of collagen” value is reported as 78% in assay [2] (0.01 μM), 104% in assay [2] (0.1 μM) and 115% in assay [2] (1 μM). Moreover, in assay [2], the “intracellular contents of collagen as compared to the control group (in words)” value is “significantly enhanced”. Moreover, the “relative content of hyaluronic acid” value in assay [3] (0.01 μM) is 108%; in assay [3] (0.1 μM), 106%; in assay [3] (1 μM), 99%. For the same compound, the “contents of hyaluronic acid as compared to the control group (in words)” value in assay [3] was “significantly enhanced”.

Take `C=C(C)[C@@H]1CC=C2C(=CC[C@]3(C)[C@@H]([C@@H](CCC=C(C)C)C(=O)O)[C@H](O)C[C@@]23C)[C@@]1(C)CCC(=O)O` [Poricoic acid B (PAB), poricoic acid B]: the “relative content of collagen” value in assay [1] (0.01 μM) is 122%; in assay [1] (0.1 μM) it was 136%; in assay [1] (1 μM) it was 153%. Also, the “extracellular contents of collagen (collagen in cell medium) as compared to the control group (in words)” value in assay [1] is listed as “significantly enhanced”. Moreover, the entries for the “relative intracellular content of collagen” value in assay [2] (0.01 μM), in assay [2] (0.1 μM) and in assay [2] (1 μM) were 105%, 108% and 99%, respectively. For the same compound, the “relative content of hyaluronic acid” value was found to be 109% in assay [3] (0.01 μM), 104% in assay [3] (0.1 μM) and 84% in assay [3] (1 μM). Besides, the “contents of hyaluronic acid as compared to the control group (in words)” value in assay [3] is “significantly enhanced”.

As for `CC(C)=CCC[C@@H](C(=O)O)[C@H]1CC[C@@]2(C)C3=C(CC[C@]12C)[C@@]1(C)CC[C@H](O)C(C)(C)[C@@H]1CC3` [Trametenolic acid (TTA), trametenolic acid], the entries for the “relative content of collagen” value in assay [1] (0.01 μM), in assay [1] (0.1 μM) and in assay [1] (1 μM) were 141%, 149% and 142%, respectively. Besides, the “extracellular contents of collagen (collagen in cell medium) as compared to the control group (in words)” value in assay [1] is recorded as “significantly enhanced”. Further, the entries for the “relative intracellular content of collagen” value in assay [2] (0.01 μM), in assay [2] (0.1 μM) and in assay [2] (1 μM) were 95%, 79% and 79%, respectively. Besides, the “relative content of hyaluronic acid” value in assay [3] (0.01 μM) was 83%; in assay [3] (0.1 μM), 108%; in assay [3] (1 μM), 125%. In addition, the “contents of hyaluronic acid as compared to the control group (in words)” value in assay [3] is “significantly enhanced”.

Turning to `C=C(CC[C@@H](C(=O)O)[C@H]1[C@H](O)C[C@@]2(C)C3=C(CC[C@]12C)[C@@]1(C)CC[C@H](O)C(C)(C)[C@@H]1CC3)C(C)C` [Tumulosic acid (TA), tumulosic acid], the “relative content of collagen” value is recorded as 140% in assay [1] (0.01 μM), 136% in assay [1] (0.1 μM) and 141% in assay [1] (1 μM). The “relative intracellular content of collagen” value in assay [2] (0.01 μM) came out at 148%; in assay [2] (0.1 μM), 127%; in assay [2] (1 μM), 147%. In addition, the “relative content of hyaluronic acid” value in assay [3] (0.01 μM) came out at 100%; in assay [3] (0.1 μM), 123%; in assay [3] (1 μM), 124%.

The record behind these values is patent publication US11654169B2, “Methods for protecting skin and/or promoting wound healing” (SINPHAR PHARMACEUTICAL CO., LTD., priority 2016, dated 2023).
